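The concentration for 50% growth inhibition is given as GI50. The concentration for full growth arrest is given as TGI.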
Assays:
Test in all cases: NCI tumour cell line growth inhibition, 384-well format
HCT-15 colon = system: HCT-15 colon
SNB-75 CNS = system: SNB-75 CNS
CAKI-1 renal = system: CAKI-1 renal
A498 renal = system: A498 renal
SK-MEL-2 melanoma = system: SK-MEL-2 melanoma
SF-539 CNS = system: SF-539 CNS
HS 578T breast = system: HS 578T breast
OVCAR-4 ovarian = system: OVCAR-4 ovarian
PC-3 prostate = system: PC-3 prostate
HOP-62 NSCLC = system: HOP-62 NSCLC
SF-268 CNS = system: SF-268 CNS
SW-620 colon = system: SW-620 colon
LOX IMVI melanoma = system: LOX IMVI melanoma
M14 melanoma = system: M14 melanoma
UACC-62 melanoma = system: UACC-62 melanoma
MDA-MB-435 melanoma = system: MDA-MB-435 melanoma
HL-60(TB) leukemia = system: HL-60(TB) leukemia
HOP-92 NSCLC = system: HOP-92 NSCLC
RXF 393 renal = system: RXF 393 renal
SK-MEL-28 melanoma = system: SK-MEL-28 melanoma
OVCAR-8 ovarian = system: OVCAR-8 ovarian
NCI-H226 lung = system: NCI-H226 lung
786-0 renal = system: 786-0 renal
ACHN renal = system: ACHN renal
NCI-H23 lung = system: NCI-H23 lung
NCI/ADR-RES ovarian = system: NCI/ADR-RES ovarian
BT-549 breast = system: BT-549 breast
CCRF-CEM leukemia = system: CCRF-CEM leukemia
TK-10 renal = system: TK-10 renal
K-562 leukemia = system: K-562 leukemia
HCC-2998 colon = system: HCC-2998 colon
SF-295 CNS = system: SF-295 CNS
NCI-H322M lung = system: NCI-H322M lung
HT29 colon = system: HT29 colon
MDA-MB-468 breast = system: MDA-MB-468 breast
EKVX NSCLC = system: EKVX NSCLC
NCI-H522 lung = system: NCI-H522 lung
SNB-19 CNS = system: SNB-19 CNS
IGROV1 ovarian = system: IGROV1 ovarian
DU-145 prostate = system: DU-145 prostate
MCF7 breast = system: MCF7 breast
MALME-3M melanoma = system: MALME-3M melanoma
COLO 205 colon = system: COLO 205 colon
A549 NSCLC = system: A549 NSCLC
RPMI-8226 leukemia = system: RPMI-8226 leukemia
SN12C renal = system: SN12C renal
SK-MEL-5 melanoma = system: SK-MEL-5 melanoma
OVCAR-3 ovarian = system: OVCAR-3 ovarian
MOLT-4 leukemia = system: MOLT-4 leukemia
HCT-116 colon = system: HCT-116 colon
UACC-257 melanoma = system: UACC-257 melanoma
SK-OV-3 ovarian = system: SK-OV-3 ovarian
NCI-H460 NSCLC = system: NCI-H460 NSCLC
KM12 colon = system: KM12 colon
U251 glioblastoma = system: U251 glioblastoma

O=C(Nc1cccc(Br)c1)Oc1cccc2cccnc12
GI50 (HCT-15 colon): 3.4 µM
TGI (HCT-15 colon): 9.07 µM
GI50 (SNB-75 CNS): 4.08 µM
TGI (SNB-75 CNS): 12.9 µM
GI50 (CAKI-1 renal): 2350 nM
TGI (CAKI-1 renal): 4.98 µM
GI50 (A498 renal): 12.9 µM
TGI (A498 renal): 26.3 µM
GI50 (SK-MEL-2 melanoma): 2800 nM
TGI (SK-MEL-2 melanoma): 5.41 µM
GI50 (SF-539 CNS): 5.79 µM
TGI (SF-539 CNS): 17.1 µM
GI50 (HS 578T breast): 16.7 µM
TGI (HS 578T breast): 39.8 µM
GI50 (OVCAR-4 ovarian): 4.82 µM
TGI (OVCAR-4 ovarian): 14.9 µM
GI50 (PC-3 prostate): 2790 nM
TGI (PC-3 prostate): 5.48 µM
GI50 (HOP-62 NSCLC): 7.61 µM
TGI (HOP-62 NSCLC): 18.8 µM
GI50 (SF-268 CNS): 3.69 µM
TGI (SF-268 CNS): 9.11 µM
GI50 (SW-620 colon): 6.19 µM
TGI (SW-620 colon): 36.7 µM
GI50 (LOX IMVI melanoma): 2950 nM
TGI (LOX IMVI melanoma): 10.8 µM
GI50 (M14 melanoma): 2780 nM
TGI (M14 melanoma): 6.06 µM
GI50 (UACC-62 melanoma): 3.74 µM
TGI (UACC-62 melanoma): 9.42 µM
GI50 (MDA-MB-435 melanoma): 12.6 µM
TGI (MDA-MB-435 melanoma): 30.4 µM
GI50 (HL-60(TB) leukemia): 1730 nM
TGI (HL-60(TB) leukemia): 3.11 µM
GI50 (HOP-92 NSCLC): 4.02 µM
TGI (HOP-92 NSCLC): 10.5 µM
GI50 (RXF 393 renal): 3.5 µM
TGI (RXF 393 renal): 7.85 µM
GI50 (SK-MEL-28 melanoma): 4.56 µM
TGI (SK-MEL-28 melanoma): 15.1 µM
GI50 (OVCAR-8 ovarian): 2560 nM
TGI (OVCAR-8 ovarian): 5.3 µM
GI50 (NCI-H226 lung): 1740 nM
TGI (NCI-H226 lung): 3.42 µM
GI50 ([…]-0 renal): 16.3 µM
TGI (786-0 renal): 33.9 µM
GI50 (ACHN renal): 6.26 µM
TGI (ACHN renal): 27.1 µM
GI50 (NCI-H23 lung): 2010 nM
TGI (NCI-H23 lung): 3.73 µM
GI50 (NCI/ADR-RES ovarian): 2430 nM
TGI (NCI/ADR-RES ovarian): 4.56 µM
GI50 (BT-549 breast): 6.95 µM
TGI (BT-549 breast): 22 µM
GI50 (CCRF-CEM leukemia): 1940 nM
TGI (CCRF-CEM leukemia): 3.43 µM
GI50 (TK-10 renal): 6.51 µM
TGI (TK-10 renal): 33.5 µM
GI50 (K-562 leukemia): 23.5 µM
TGI (K-562 leukemia): 50.3 µM
GI50 (HCC-2998 colon): 16.2 µM
TGI (HCC-2998 colon): 30.1 µM
GI50 (SF-295 CNS): 7.95 µM
TGI (SF-295 CNS): 23.6 µM
GI50 (NCI-H322M lung): 17.5 µM
TGI (NCI-H322M lung): 43 µM
GI50 (HT29 colon): 8.98 µM
TGI (HT29 colon): 21.2 µM
GI50 (MDA-MB-468 breast): 2820 nM
TGI (MDA-MB-468 breast): 4.48 µM
GI50 (EKVX NSCLC): 2390 nM
TGI (EKVX NSCLC): 4.96 µM
GI50 (NCI-H522 lung): 2180 nM
TGI (NCI-H522 lung): 4.32 µM
GI50 (SNB-19 CNS): 9.79 µM
TGI (SNB-19 CNS): 38.3 µM
GI50 (IGROV1 ovarian): 2230 nM
TGI (IGROV1 ovarian): 4.46 µM
GI50 (DU-145 prostate): 8.98 µM
TGI (DU-145 prostate): 36.7 µM
GI50 (MCF7 breast): 2230 nM
TGI (MCF7 breast): 4.47 µM
GI50 (MALME-3M melanoma): 4.16 µM
TGI (MALME-3M melanoma): 13.1 µM
GI50 (COLO 205 colon): 2610 nM
TGI (COLO 205 colon): 4.87 µM
GI50 (A549 NSCLC): 13.8 µM
TGI (A549 NSCLC): 32.8 µM
GI50 (RPMI-8226 leukemia): 2260 nM
TGI (RPMI-8226 leukemia): 3.75 µM
GI50 (SN12C renal): 4.46 µM
TGI (SN12C renal): 15.4 µM
GI50 (SK-MEL-5 melanoma): 5.81 µM
TGI (SK-MEL-5 melanoma): 17.9 µM
GI50 (OVCAR-3 ovarian): 2120 nM
TGI (OVCAR-3 ovarian): 3.92 µM
GI50 (MOLT-4 leukemia): 1990 nM
TGI (MOLT-4 leukemia): 3.47 µM
GI50 (HCT-116 colon): 2400 nM
TGI (HCT-116 colon): 4.37 µM
GI50 (UACC-257 melanoma): 2280 nM
TGI (UACC-257 melanoma): 4.16 µM
GI50 (SK-OV-3 ovarian): 17.9 µM
TGI (SK-OV-3 ovarian): 34.3 µM
GI50 (NCI-H460 NSCLC): 2760 nM
TGI (NCI-H460 NSCLC): 6.44 µM
GI50 (KM12 colon): 5.99 µM
TGI (KM12 colon): 18.1 µM
GI50 (U251 glioblastoma): 5.89 µM
TGI (U251 glioblastoma): 17.4 µM

— PubChem BioAssay (NCI)
